In the test the test system is newly formed blood vessels with increased permeability. Description: Hindlimb ischemia model, edema (hindlimb circumference). Type of test: in vivo, mice. The following applies: LPA 3 mg/kg i.p. once daily for three days, 24 hours after final administration, vs control. The text has this:
A hindlimb ischemia model is used as a pathological model of Buerger's disease and chronic arteriosclerosis obliterans. In the production of such a model, a blood vessel in the hindlimb of a mouse is dissected to induce ischemia in the region supplied by the blood vessel. The surgical dissection also causes inflammation. The ischemia and inflammation induce angiogenesis. The newly formed blood vessels have increased permeability, which induces edema in the muscles of the hindlimb. An experiment was performed to determine whether LPA inhibits such increased permeability of newly formed blood vessels induced by inflammation or ischemia.
C57BL/6 NCrSlc mice aged 6 weeks (females, SLC, Inc.) were used. An incision was made in the inguinal skin of the right hindlimb under anesthesia with pentobarbital (Kyoritsu Seiyaku Corporation). The femoral vein was ligated at the proximal end, and the saphenous artery and vein were ligated at the distal end. The arteries and veins were excised along with their side branches. The skin incision was closed with a sterilized surgical suture (Natsume Seisakusho). The animal was placed in a 37° C. incubator until the animal recovered from anesthesia. […] At 24 hours after the final administration, the hindlimb circumference was measured.

Turning to lysophosphatidic acid [LPA], the “hindlimb circumference (edema)” value is “significantly reduced”.
